Test results as given in ChEMBL document CHEMBL2380283, “Design and synthesis of thiophene dihydroisoquinolines as novel BACE1 inhibitors” (Bioorg Med Chem Lett, 2013).

Experiments:
Beta-secretase 1 [1] = target: T1, Beta-secretase 1 (Homo sapiens, UniProt P56817); assay: Inhibition of BACE1 (unknown origin) by Alpha screen assay
Cathepsin D = Cathepsin D (Homo sapiens, UniProt P07339); assay: Inhibition of cathepsin-D (unknown origin) after 110 mins by fluorescence polarization assay
Beta-secretase 1 [2] = target: T1, Beta-secretase 1; assay: Inhibition of recombinant BACE1 (unknown origin) expressed in Escherichia coli using biotinylated APP swidesh mutant as substrate incubated for 20 mins prior to substrate addition measured after 3 hrs by fluorescence polarization assay
[3] = Apparent permeability across apical to basolateral side in MDCK cells expressing MDR1 at 5 uM after 120 mins by LC/MS/MS analysis; format: ADME, cell-based, Canis lupus familiaris; settings: dog

T1 sequence (P56817 whole entry): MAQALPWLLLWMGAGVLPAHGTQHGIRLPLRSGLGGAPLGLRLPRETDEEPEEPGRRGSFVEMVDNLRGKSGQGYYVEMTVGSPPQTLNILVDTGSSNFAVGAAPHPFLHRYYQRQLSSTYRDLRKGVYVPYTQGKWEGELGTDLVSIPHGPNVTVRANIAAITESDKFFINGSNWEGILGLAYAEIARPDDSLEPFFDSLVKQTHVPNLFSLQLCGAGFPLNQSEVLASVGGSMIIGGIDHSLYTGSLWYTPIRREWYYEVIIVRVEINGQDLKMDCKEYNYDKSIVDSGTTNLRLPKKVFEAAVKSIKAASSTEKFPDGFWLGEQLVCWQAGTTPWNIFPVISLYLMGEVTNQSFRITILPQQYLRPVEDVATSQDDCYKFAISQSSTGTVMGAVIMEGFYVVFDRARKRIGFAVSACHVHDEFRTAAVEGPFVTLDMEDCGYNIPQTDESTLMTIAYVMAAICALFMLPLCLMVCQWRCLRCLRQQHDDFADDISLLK
Chain of Cathepsin D (P07339 65-162 limits assumed): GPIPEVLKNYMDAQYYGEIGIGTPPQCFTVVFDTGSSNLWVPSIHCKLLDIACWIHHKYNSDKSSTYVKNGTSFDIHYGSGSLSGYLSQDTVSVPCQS
Chain of Cathepsin D (P07339 169-412 limits assumed): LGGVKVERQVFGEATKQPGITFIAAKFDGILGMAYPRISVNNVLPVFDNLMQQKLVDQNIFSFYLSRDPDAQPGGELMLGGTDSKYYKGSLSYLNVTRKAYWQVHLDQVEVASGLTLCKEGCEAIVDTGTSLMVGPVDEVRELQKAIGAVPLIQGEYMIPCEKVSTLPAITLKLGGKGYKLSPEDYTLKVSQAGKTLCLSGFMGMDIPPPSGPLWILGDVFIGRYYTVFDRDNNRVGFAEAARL

IC50 (Beta-secretase 1 [1]) | SMILES | also measured
310 nM | CC1(C)Cc2cc(Cl)ccc2C(NC(Cc2cscc2Br)C(=O)O)=N1 (stereo not drawn) | 
760 nM | C#Cc1cscc1CC(NC1=NC(C)(C)Cc2cc(Cl)ccc21)C(=O)O (stereo not drawn) | 
8 nM | CCCc1scc(-c2cn[nH]c2)c1CC(NC1=NC(C)(C)Cc2cc(Cl)ccc21)C(=O)O (stereo not drawn) | IC50 (Cathepsin D): > 30000 nM; IC50 (Beta-secretase 1 [2]): 400 nM
450 nM | CC1(C)Cc2cc(Cl)ccc2C(NC(Cc2cscc2-c2cn[nH]c2)C(=O)O)=N1 (stereo not drawn) | 
510 nM | CC#Cc1cscc1CC(NC1=NC(C)(C)Cc2cc(Cl)ccc21)C(=O)O (stereo not drawn) | 
610 nM | CCCc1cscc1CC(NC1=NC(C)(C)Cc2cc(Cl)ccc21)C(=O)O (stereo not drawn) | 
570 nM | CC1(C)Cc2cc(Cl)ccc2C(NC(Cc2cscc2CCC2CC2)C(=O)O)=N1 (stereo not drawn) | 
2900 nM | CC1(C)Cc2cc(Cl)ccc2C(NC(Cc2ccsc2)C(=O)O)=N1 (stereo not drawn) | 
1260 nM | CC1(C)Cc2cc(Cl)ccc2C(NC(Cc2cscc2-c2cc[nH]n2)C(=O)O)=N1 (stereo not drawn) | 
1850 nM | CC1(C)Cc2cc(Cl)ccc2C(NC(Cc2cscc2-c2ccncc2)C(=O)O)=N1 (stereo not drawn) | 
1090 nM | Cn1cc(-c2cscc2CC(NC2=NC(C)(C)Cc3cc(Cl)ccc32)C(=O)O)cn1 (stereo not drawn) | 
406 nM | CCCc1scc(-c2cn[nH]c2)c1CC(NC1=NC(C)(C)Cc2cc(Cl)ccc21)c1nccc(=O)[nH]1 (stereo not drawn) | IC50 (Cathepsin D): > 30000 nM; IC50 (Beta-secretase 1 [2]): 40000 nM; Papp A→B at 2 h, 5 µM [3]: 10 ×10⁻⁶ cm/s
630 nM | CCc1cscc1CC(NC1=NC(C)(C)Cc2cc(Cl)ccc21)C(=O)O (stereo not drawn) | 
2430 nM | CC1(C)Cc2cc(Cl)ccc2C(NC(Cc2cscc2C2CC2)C(=O)O)=N1 (stereo not drawn) | 
264000 nM | CC1(C)Cc2cc(Cl)ccc2C(N[C@H](Cc2ccccc2)C(=O)O)=N1 | 
710 nM | CC1(C)Cc2cc(Cl)ccc2C(NC(Cc2sccc2Br)C(=O)O)=N1 (stereo not drawn) | 
9500 nM | CC1(C)Cc2cc(Cl)ccc2C(NC(Cc2ccsc2Br)C(=O)O)=N1 (stereo not drawn) | 
820 nM | CC1(C)Cc2cc(Cl)ccc2C(NC(Cc2cscc2-c2ncco2)C(=O)O)=N1 (stereo not drawn) | 
